Results published in a melting point compilation (Tetko et al.; mined from patent text by program, amines drawn as free bases though some values may be those of a salt).

Row | melting point [°C] | Structure (SMILES)
1 | 107 | O=CC1CCC(C2CC[Si](c3ccccc3)(c3ccccc3)CC2)CC1 (centres undefined)
2 | 179 to 180 | CCN(CC)c1cc(-c2ccco2)ncn1
3 | 203 to 205 | OCCOc1cccc(-c2n[nH]c3c2Cc2ccccc2-3)c1
4 | 279 | NC(=O)c1cnn2cccc2c1NC1CCCCCC1
5 | 127 to 130 | O=C(NCCCCCCOCc1ccc(OCc2ccccc2)cc1)c1cc(-c2cccc(C(F)(F)F)c2)c(O)c(-c2cccc(C(F)(F)F)c2)c1
6 | 111 to 112 | COC(=O)C=CC(=O)c1cc(Cl)ccc1N
7 | 201 to 202 | COc1ccc(C2(C)C(=O)Nc3cc(N4CCN(C)CC4)cc(Cl)c3C2=O)cc1 (centres undefined)
8 | 212 to 214 | COC(c1ccc(Cl)cc1)(c1ccc(NC(=O)c2cccc(I)c2C(=O)NC(C)C)c(C)c1)C(F)(F)F (centres undefined)
9 | 211 | O=C1c2ccc([N+](=O)[O-])cc2COc2cc(Nc3ccc(F)cc3[N+](=O)[O-])ccc21
10 | 146 to 147 | Cc1c(Cc2ccc(F)c(Cl)c2)sc2c(-c3cccc(C(=O)NCCO)c3)cccc12
11 | 81 to 91 | CCOC(=O)C=Cc1ccc(OC)c2c1CC1(CCCC1)O2
12 | 126 to 127 | CCC(C)N1CN(C)C(=O)N(c2nc3c(s2)C(=O)CC(C)(C)C3)C1 (centres undefined)
13 | 173 to 178 | CC(C)c1ccc2c(c1)NC(=O)CC(c1ccnc(C#N)c1)=N2
14 | 234 to 236 | CCOC(=O)c1nc(N)sc1-c1cn2c(C)cccc2n1
15 | 100 to 102 | O=C1Cc2cccc(Oc3ccc(Cl)cc3)c2O1
16 | 231 to 233 | CS(=O)(=O)c1ccc(C2SCC(=O)N2c2ccc(Cl)cc2)cc1 (centres undefined)
17 | 128 to 130 | CN(C)Cc1cc2ccc(-c3nnc(CSCCOc4ccccc4)o3)cc2[nH]1
18 | 163 to 170 | O=[N+]([O-])c1cc(Cl)cc(Cc2cc(Cl)cc([N+](=O)[O-])c2O)c1O
19 | 75 to 77 | COC1OCC2C(O)C3CCCCC3CC12 (centres undefined)
20 | 212 to 213 | CCOC(=O)C1=C(C)Nc2ccn(CCCN(C)C)c(=O)c2C1c1cccc([N+](=O)[O-])c1 (centres undefined)
21 | 174 | CC(=O)Nc1ccc(Cl)cc1S(=O)(=O)CC#N
22 | 133 to 135 | Cc1nn(-c2cc(Oc3ccc(N)cc3)c(Cl)cc2F)c(=O)n1C(F)F
23 | 303 to 304 | O=C(O)c1ccc(-c2nc(-c3cccnc3)cs2)cc1

Row | melting point [°C] | Structure (SMILES)
24 | 152 to 153 | CC(C)(NC(=O)C(CO)NC(=O)c1ccccc1)c1ccccc1 (centres undefined)
25 | 162 to 163 | CC(C)(C)C(=O)OCOC(=O)[C@H]1C[C@H](NC(=O)Cc2ccccc2)c2c(Cl)cc(Cl)cc2N1 (relative stereo)
26 | 109 to 111 | CN(Cc1cc2cc([N+](=O)[O-])ccc2o1)C1Cc2ccc([N+](=O)[O-])cc2C1 (centres undefined)
27 | 138 | CCOC(=NC(=O)c1ccc(Cl)c(Cl)c1)N1Cc2ccccc2-c2ccccc2C1
28 | 117 to 119 | COCC1(O)CCN(c2c(F)cc(N3C[C@H](CO)OC3=O)cc2F)CC1
29 | 130 | CCOC(=O)c1c(O)c2cc(C)ccc2n(Cc2ccc(F)cc2)c1=O
30 | 84 to 85 | CC(Cc1ccc(O)cc1)N(CC(=O)c1ccccc1)Cc1ccc(OCc2ccccc2)c([N+](=O)[O-])c1 (centres undefined)
31 | 172 to 173 | CCOC(=O)c1cn(C)c2sc(CN3CCOCC3)c(C)c2c1=O
32 | 139 to 140 | NS(=O)(=O)Oc1ccccc1C(=O)O
33 | 108 to 109 | Cc1ccc(/C=C/c2nc(COc3ccc(CCCCn4ccnc4CCO)cc3)co2)cc1
34 | 32 to 34 | CCOC(=O)c1c(C(F)(F)F)nc(OC)c(C#N)c1OC
35 | 98 to 99 | COc1ccc(OC(C(=O)N(C)C)C2(O)CCCCC2)cc1 (centres undefined)
36 | 131 to 132 | Cc1oc(-c2cc3ccccc3s2)nc1COc1ccc(CCCCn2cncn2)cc1
37 | 207 to 219 | CCOc1cc2c(cc1OC)C(c1ccc(NS(=O)(=O)c3ccc(C)cc3)cc1)=N[C@H]1CCN(C)C[C@@H]21
38 | 80 to 83 | COC(=O)c1ccc2c(CCC=O)nn(C)c2c1
39 | 305 to 307 | Cc1cccc2c(=O)cc(C(=O)Nc3ccc(CC4SC(=O)NC4=O)cc3)oc12 (centres undefined)
40 | 104 to 106 | CC(C)c1nc(CCCOCc2ccccc2)n(CCO)c1Sc1cc(Cl)cc(Cl)c1
41 | 167 to 168 | COc1ccc(OC)c2cc3c(cc12)C1OC3C2=C1CCC(C(C)=O)C2 (centres undefined)
42 | 78 to 79 | c1ccc(Sc2ccc(Sc3ccccc3)cc2)cc1
43 | 111 to 113 | Nc1cc(OCc2ccccc2)c(OCc2ccccc2)cn1
44 | 242 to 245 | Nc1nc(-c2ccc(CCCCN3CCN(c4cccc5ccccc45)CC3)cc2)cs1
45 | 194 to 197 | CN1CCN(C(=O)C2CCC(Nc3ncc4ncnc(Nc5ccc(F)c(Cl)c5)c4n3)CC2)CC1 (centres undefined)
46 | 167 to 169 | CCOC(CN1C(=O)C(NC(=O)Nc2cccc(C)c2)CN(C(=O)C(C)(C)C)c2ccccc21)OCC (centres undefined)

Row | melting point [°C] | Structure (SMILES)
47 | 214 | CC(=O)c1ccc(-c2cc(-c3c(-c4ccccn4)nc4ccccn34)ccn2)cc1
48 | 192 to 193 | CC1(C)CCc2c(N3CCCC3)nc3sc4c(NCCc5c[nH]cn5)ncnc4c3c2C1
49 | 139 to 141 | CC(c1cc(F)cc(F)c1)n1ncc(-c2ccc(S(N)(=O)=O)cc2)c(-c2ccc(F)cc2)c1=O (centres undefined)
50 | 242 to 245 | CN1C(C(=O)Nc2cccccc2=O)=C(O)c2sccc2S1(=O)=O
51 | 149 to 151 | O=S1(=O)NCN(C2CC2)c2c(F)cc(F)c(F)c21
52 | 115 to 117 | CC[Si](CC)(Cc1ccc(N(c2ccccc2)c2ccccc2)cc1)Cc1ccc(N(c2ccccc2)c2ccccc2)cc1
53 | 31 to 36 | COCC1=C(C)C(=O)C(OC)=C(OC)C1=O
54 | 94 to 95 | CCOC(=O)C(CC(N)=O)(C(=O)OCC)n1cccc1
55 | 164 to 166 | CC(C)OC(=O)CC(NCCCN(C)C)C(=O)O (centres undefined)
56 | 247 to 248 | Cn1c(=O)c(-c2c(Cl)cccc2Cl)cc2cnc(Nc3cccnc3)nc21
57 | 148 to 150 | COc1cc(-c2cc(C(F)(F)F)nn2-c2ccc(S(C)(=O)=O)c(F)c2)ccc1-c1cocn1
58 | 54 to 55 | CCOC(=O)C=Cc1c(-c2ccccc2)nn2ccccc12
59 | 120 to 122 | CCOC(C)=NS(=O)(=O)c1nc(-c2ccccc2)ns1
60 | 105 to 106 | C/C(=C\CC1OC(=O)NC1=O)c1cccc(OCc2nc(-c3ccc(OC(F)(F)F)cc3)oc2C)c1 (centres undefined)
61 | 188 to 191 | ON=C(Nc1ccc(C(F)(F)F)cc1)C1=NN(c2ccc(Cl)cc2)C(c2ccc(F)cc2)C1 (centres undefined)
62 | 74 to 75 | CC1(C)CCC(C)(C)c2cc(CO)ccc21
63 | 129 to 131 | O=C1C=C(c2cc(F)c(Br)cc2F)CC1
64 | 135 to 137 | Oc1cc2c(cc1O)OCC(c1ccc(F)cc1)C2 (centres undefined)
65 | 230 to 238 | COc1ccc(C(=O)N[C@@H](CNC(=O)c2ccc(C)cc2)c2ccccc2)cc1
66 | > 245 | O=S(=O)(Nc1ccc(Oc2cccc3cccnc23)c(Cl)c1)c1cccc(C(F)(F)F)c1
67 | 113 to 115 | CC(=O)OCCn1c(=O)sc2ccc(-c3nc4ccccn4c3C)cc21
68 | 240 to 242 | Cc1cn(Cc2cc(C)c3c(c2)-c2[nH]nc(-c4ccsc4)c2C3)cn1
69 | 249 to 250 | Cc1cccc(C)c1NC(=O)CC1c2ccccc2Oc2ccccc21

Row | melting point [°C] | Structure (SMILES)
70 | 285 to 290 | COc1ccc(Cl)cc1-c1n[nH]c(=O)cc1NN
71 | 208 to 209 | CN1CCC(c2c[nH]c3ccc(/C=C/S(N)(=O)=O)cc23)CC1
72 | 186 | CCC1c2ncn(C)c2CCN1C(=S)NC(C)C (centres undefined)
73 | 52 to 56 | COc1ccc(C(=C(c2ccccc2)C(F)(F)F)c2ccc(F)cc2)cc1
74 | 106 to 108 | C#CC1(OC(=O)C(C)C)C(COC(=O)c2ccc(Cl)cc2)OC(n2ccc(N)nc2=O)C1OC(=O)C(C)C (centres undefined)
75 | 243 to 244 | O=C(Nc1ccc(N2CCC2)nc1)c1cc2cc(C(F)(F)F)cnc2n1Cc1cccc(F)c1
76 | 157 to 159 | Cc1cccc(C2(O)CCN(CC3CCc4ccccc4C3=O)CC2)c1 (centres undefined)
77 | 98 to 101 | CC(C)c1ccc(C(=O)c2ccc(CC(=O)O)n2C)cc1
78 | 150 | CC(C)(C)OC(=O)CN(C(=O)CN1C(=O)c2ccccc2C1=O)c1ccccc1C(=O)N1CCCc2ccccc21
79 | 118 | Clc1ccc(-c2nc(Cl)nc(Cl)n2)c(Cl)c1
80 | 198 to 199 | CC(C)C(NC(=O)NCc1ccccn1)C(=O)NC(Cc1ccccc1)C(O)C(Cc1ccccc1)NC(=O)C(NC(=O)NCc1ccccn1)C(C)C (centres undefined)
81 | > 260 | Cn1cncc1C(O)(c1ccc2c(c1)OCCO2)c1ccc2[nH]c(=O)nc(-c3cccc(Cl)c3)c2c1 (centres undefined)
82 | 133 to 135 | Fc1cccc(F)c1C1=N[C@@H](c2ccc(-c3ccc(S)cc3)cc2)CO1
83 | 80 to 82 | Nc1ccc(SCC2CCCCC2)cc1[N+](=O)[O-]
84 | 58 to 59 | CCOC(=O)C(C(=O)Cc1cc(OC(C)C)c(Cl)cc1F)=C(N)C(F)(F)F
85 | 105 to 108 | CCOC(=O)c1ccc(NCCCCCCOc2ccccc2)cc1
86 | 284 to 286 | COc1ccc2nc3c(c(-c4ccc(F)cc4)c2c1)CNC3=O
87 | 187 to 192 | OCCN1CCN(C2=Nc3ccccc3Oc3cscc32)CC1
88 | 211 to 213 | Oc1ccc(-c2c3ccccc3c(Br)c3sc4ccccc4c23)cc1
89 | 99 to 101 | Cc1cn(C2(C(=O)N(C)C)CCCC2)nc1-c1ccccc1
90 | 134 to 135 | CS(=O)(=O)c1ccc(-c2c(F)c(F)c(F)c(F)c2-c2ccc(F)cc2)cc1

Row | Structure (SMILES) | melting point [°C]
91 | OC1(C#Cc2ccc(-c3ccccn3)cc2)CN2CCC1CC2 (centres undefined) | 205 to 206
92 | C=CCN1C2CCC1C1CCC2N1C(c1ccc(C(=O)N(C)C)cc1)c1cccc(O)c1 (centres undefined) | 99 to 101
93 | N#CC(C#N)(CCSC(F)(F)C(F)Cl)CC(F)(F)C(F)(F)C(F)(F)C(F)F (centres undefined) | 78 to 80
94 | CCOC(=O)CCCN(C(=O)CCC1CCCCC1)C1N=C(c2ccccc2)c2ccccc2N(C)C1=O (centres undefined) | 103 to 105
